Patent US12310975B2, “Modulators of BCL6 proteolysis and associated methods of use” (Arvinas Operations, Inc., priority 2019, dated 2025)

Legend:
[1] = target: T1, BCL6 (Homo sapiens (Human), UniProt P41182); assay: BCL6 TR-FRET assay (BCL6-Avitag-Biotin / BCoR-Cy5 peptide); type: binding; details: class symbols A-D; read-out: IC50 (nM)***
Method in brief: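 TR-FRET displacement assay: biotinylated His-SUMO-BCL6-Avitag (2 nM) pre-incubated 30 min at room temperature with compound (12-point 3-fold titration), then BCoR-Cy5 peptide (100 nM) and Eu-streptavidin (2 nM) added. Buffer: 50 mM HEPES pH 7.5, 125 mM NaCl, 0.01% Triton X, glutathione or DTT, 0.03% BSA. Read after 2 h.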

[2] = target: T1, BCL6; assay: Immunofluorescence high content imaging of BCL6 degradation in T47D cells; type: cell-based; details: for Dmax: T47D, maximum, class symbols A-C; for DC50: class symbols A-D, read-out: EC50 (nM)*
Method in brief: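 T47D, 3 d compound exposure, 11-pt 3-fold series, top 0.1 or 1 μM final. Fix 4% PFA, Triton permeabilize, anti-BCL6 primary overnight 4 °C, Alexa-488 secondary. High-content imaging 10×, 4 fields/well, top-hat smoothing.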

SMILES	IC50 [1] [nM]	Dmax [2] [%]	DC50 [2] [nM]
CC(=O)COc1cc2cc(Nc3nc(N4CCC(CN5CC6(C5)CN(c5ccc7c(c5)C(=O)N(C5CCC(=O)NC5=O)C7=O)C6)CC4)ncc3Cl)ccc2n(C)c1=O (stereo not drawn) [compound 165, 5-(6-((1-(5-chloro-4-((1-methyl-2-oxo-3-(2-oxopropoxy)-1,2-dihydroquinolin-6-yl)amino)pyrimidin-2-yl)piperidin-4-yl)methyl)-2,6-diazaspiro[3.3]heptan-2-yl)-2-(2,6-dioxopiperidin-3-yl)isoindoline-1,3-dione]	10 to 50	50 to 70	10 to 50
CN(C)C(=O)COc1cc2cc(Nc3nc(N4CCC(CN5CCN(c6ccc7c(c6)C(=O)N(C6CCC(=O)NC6=O)C7=O)CC5)CC4)ncc3Cl)ccc2n(C)c1=O (stereo not drawn) [compound 166, 2-((6-((5-chloro-2-(4-((4-(2-(2,6-dioxopiperidin-3-yl)-1,3-dioxoisoindolin-5-yl)piperazin-1-yl)methyl)piperidin-1-yl)pyrimidin-4-yl)amino)-1-methyl-2-oxo-1,2-dihydroquinolin-3-yl)oxy)-N,N-dimethylacetamide]	50 to 100	< 50	> 100
CNC(=O)COc1cc2cc(Nc3nc(N4CCCC(COc5ccc(C6CCN(CC#Cc7ccc8c(c7)CN(C7CCC(=O)NC7=O)C8=O)CC6)cc5)C4)ncc3Cl)ccc2n(C)c1=O (stereo not drawn) [compound 167, 2-((6-((5-chloro-2-(3-((4-(1-(3-(2-(2,6-dioxopiperidin-3-yl)-1-oxoisoindolin-5-yl)prop-2-yn-1-yl)piperidin-4-yl)phenoxy)methyl)piperidin-1-yl)pyrimidin-4-yl)amino)-1-methyl-2-oxo-1,2-dihydroquinolin-3-yl)oxy)-N-methylacetamide]	10 to 50	< 50	> 100
CNC(=O)COc1cc2cc(Nc3nc(N4CCC(OCCOCCOCCOCCCOc5ccc6c(c5)CN(C5CCC(=O)NC5=O)C6=O)CC4)ncc3Cl)ccc2n(C)c1=O (stereo not drawn) [compound 168, 2-((6-((5-chloro-2-(4-(2-(2-(2-(3-((2-(2,6-dioxopiperidin-3-yl)-1-oxoisoindolin-5-yl)oxy)propoxy)ethoxy)ethoxy)ethoxy)piperidin-1-yl)pyrimidin-4-yl)amino)-1-methyl-2-oxo-1,2-dihydroquinolin-3-yl)oxy)-N-methylacetamide]	10 to 50	50 to 70	> 100

Second part, the compound after the results:

IC50 [1] [nM]	Dmax [2] [%]	DC50 [2] [nM]	SMILES
10 to 50	< 50	> 100	CC(=O)COc1cc2cc(Nc3nc(N4CCC(CCOC5CN(c6ccc7c(c6)C(=O)N(C6CCC(=O)NC6=O)C7=O)C5)CC4)ncc3Cl)ccc2n(C)c1=O (stereo not drawn) [compound 164, 5-(3-(2-(1-(5-chloro-4-((1-methyl-2-oxo-3-(2-oxopropoxy)-1,2-dihydroquinolin-6-yl)amino)pyrimidin-2-yl)piperidin-4-yl)ethoxy)azetidin-1-yl)-2-(2,6-dioxopiperidin-3-yl)isoindoline-1,3-dione]
10 to 50	50 to 70	< 10	CC(=O)COc1cc2cc(Nc3nc(N4CCC(N(C)C5CCN(c6ccc7c(c6)C(=O)N(C6CCC(=O)NC6=O)C7=O)CC5)CC4)ncc3Cl)ccc2n(C)c1=O (stereo not drawn) [compound 169, 5-(4-((1-(5-chloro-4-((1-methyl-2-oxo-3-(2-oxopropoxy)-1,2-dihydroquinolin-6-yl)amino)pyrimidin-2-yl)piperidin-4-yl)(methyl)amino)piperidin-1-yl)-2-(2,6-dioxopiperidin-3-yl)isoindoline-1,3-dione]
10 to 50	< 50	50 to 100	CC(=O)COc1cc2cc(Nc3nc(N4CCC(OC5CCN(c6ccc7c(c6)C(=O)N(C6CCC(=O)NC6=O)C7=O)CC5)CC4)ncc3Cl)ccc2n(C)c1=O (stereo not drawn) [compound 170, 5-(4-((1-(5-chloro-4-((1-methyl-2-oxo-3-(2-oxopropoxy)-1,2-dihydroquinolin-6-yl)amino)pyrimidin-2-yl)piperidin-4-yl)oxy)piperidin-1-yl)-2-(2,6-dioxopiperidin-3-yl)isoindoline-1,3-dione]
